Where “and” joins values, the source holds several entries; their conditions need not be identical. Identical values can stand only once.
Key:
K. pneumoniae = experiment: Kirby-Bauer disc diffusion antimicrobial susceptibility; type: cell-based; conditions: 100 mM, carrier water; 18-24 hours for aerobes
[1] = test system: Staphylococcus aureus ATCC33591 (MRSA); experiment: Paper disc test with water or propylene glycol, Example 10
P. aeruginosa = experiment: Kirby-Bauer disc diffusion antimicrobial susceptibility; type: cell-based, Pseudomonas aeruginosa; conditions: 100 mM, carrier water; 18-24 hours for aerobes
S. aureus 6538 = experiment: as above; type: cell-based; conditions: 100 mM, carrier water; 18-24 hours for aerobes
S. aureus 33591 (MRSA) = experiment: as above; type: cell-based, Staphylococcus aureus; conditions: 100 mM, carrier water; 18-24 hours for aerobes
[2] = test system: Aureobasidium pullulans, ATCC 15233; experiment: In vitro test of 2, 4, 6 Trihydroxybenzaldehyde against a fungi; type: cell-based; conditions: 100 mM
[3] = test system: E. coli, ATTC 8739 and ATCC 43895; experiment: Kirby-Bauer disc diffusion antimicrobial susceptibility; type: cell-based; conditions: 100 mM, carrier water; 18-24 hours for aerobes
[4] = test system: Staphylococcus epidermidis ATCC 51625 (MRSE); experiment: In vitro antimicrobial test (FIG. 32); type: cell-based
Legionella 43662 = type: cell-based
[5] = test system: Pseudomonas aeruginosa ATCC9027; experiment: Paper disc test with water or propylene glycol, Example 10
all bacteria tested = experiment: In vitro antimicrobial susceptibility, whole panel; type: cell-based
S. pyogenes = experiment: Kirby-Bauer disc diffusion antimicrobial susceptibility; type: cell-based; conditions: 100 mM, carrier water
S. mutans = experiment: as above; type: cell-based; conditions: 100 mM, carrier water
C. perfringens = type: cell-based; conditions: 100 mM, carrier water
C difficile = experiment: Kirby-Bauer disc diffusion antimicrobial susceptibility; type: cell-based; conditions: 100 mM, carrier water; 48 hours for anaerobes

O=Cc1c(O)cc(O)cc1O [2, 4, 6 Trihydroxybenzaldehyde, 2, 4, 6 trihydroxybenzaldehyde] was tested. Which “effectiveness against K. pneumoniae” value (K. pneumoniae) did it give?
Its value is “effective”.

And the “inhibition of growth under the sample” value ([1]; PPG)?
Its value is “I”.

And the zone of inhibition ([1]; PPG)?
The zone of inhibition was 12 mm.

And the “inhibition of growth under the sample” value ([1]; Water)?
Its value is “I”.

What about the zone of inhibition ([1]; Water, listed as 246 THBA) of the same compound?
Its zone of inhibition is 14 mm and 15 mm.

What about the “effectiveness against P. aeruginosa” value (P. aeruginosa) of the same compound?
The value was “effective”.

What about the “effectiveness against S. aureus 6538” value (S. aureus 6538) of the same compound?
The value was “effective”.

What about the “effectiveness against S. aureus 33591 (MRSA)” value (S. aureus 33591 (MRSA)) of the same compound?
The value was “effective”.

What about the “effectiveness against A. pullulans, a fungi” value [2] of the same compound?
The value was “effective”.

And the “effectiveness against E. coli” value [3]?
The value was “effective”.

And the “effectiveness against MRSE ATCC 51625” value [4]?
The value was “effective”.

And the “effectiveness against Legionella 43662” value (Legionella 43662)?
Its value is “effective”.

And the “inhibition of growth under the sample” value ([5]; PPG)?
The value was “I”.

And the zone of inhibition ([5]; PPG)?
Its zone of inhibition is 3 mm.

What about the “inhibition of growth under the sample” value ([5]; Water) of the same compound?
The value was “I”.

What about the zone of inhibition ([5]; Water, listed as 246 THBA) of the same compound?
The zone of inhibition was 2 mm and 3 mm.

And the “antibiotic properties (summary)” value (all bacteria tested)?
The value was “broad spectrum antibiotic”.

Which “effectiveness against P. aeruginosa” value (P. aeruginosa) does the source give for CC1(C)S[C@@H]2[C@H](NC(=O)[C@H](N)c3ccc(O)cc3)C(=O)N2[C@H]1C(=O)O [Amoxicillin, amoxicillin, reference compound] here?
Its value is “no effect”.

What does the source list for Oc1cc(O)c2cc(O)c(-c3ccc(O)c(O)c3)[o+]c2c1.[Cl-] [Cyanidin CI, cyanidin chloride]?
effectiveness against S. pyogenes (S. pyogenes): effective; effectiveness against S. mutans (S. mutans): effective; effectiveness against S. aureus 6538 (S. aureus 6538): effective; effectiveness against S. aureus 33591 (MRSA) (S. aureus 33591 (MRSA)): effective; effectiveness against C. perfringens (growth inhibition) (C. perfringens): effective; effectiveness against C. difficile (growth inhibition) (C difficile): effective; antibiotic properties (summary) (all bacteria tested): limited antibiotic properties

How did the “antibiotic properties (summary)” value (all bacteria tested) turn out when O=C(O)CNC(=O)c1ccccc1 [hippuric acid] was run?
The value was “little activity”.

How did the “antibiotic properties (summary)” value (all bacteria tested) turn out when COc1cc(C(=O)O)ccc1O [vanillic acid] was run?
The value was “little activity”.
